Source: patent publication US20100317699A1, “USE OF HEDGEHOG AGONISTS IN THE TREATMENT OF MUSCULOSKELETAL-RELATED DISORDERS” (NOVARTIS AG, priority 2008, published 2010)
Values joined by “and” are separate entries in the source; they are usually repeats but may differ in a detail not shown here. Equal entries are not always repeated. “Also recorded” adds a separate entry of the source.

Columns and labels:
[1] = system: primary myoblasts; experiment: Primary myoblast proliferation, PI staining and FACS analysis; format: cell-based, mouse
Protocol: (§1) Cells. TM3 and C2C12 cells were obtained from ATCC, propagated according to manufacturer's instructions, and maintained at subconfluence. Both primary myoblasts and isolated satellite cells were grown in Ham's F10 media supplemented with 20% Fetal calf serum and 1% Penicillin/Streptomycin without βFGF. All cells were plated on pre-coated collagen dishes (MatTek) or on plastic culture plates treated with rat tail collagen type I (BD).
Myoblast isolation. Two to three week-old male C57/BL/6J pups were used for the experiments. The mice were euthanized using CO2. Then the skin and fascia from the ankle joint up toward the hip were peeled to expose underlying muscles. The muscles (hamstring, quadriceps, tibialis anterior, extensor digitorum longus, gastrocnemius and soleus) from both legs were carefully removed, trying to any tendons and non-muscle tissues. The dissected muscles were placed in a sterile […] containing PBS and washed to remove hair and other debris. The muscles were then transferred to a sterile 35 mm^2 dish and 1.5 ml of a collagenase/dispase solution was added to digest the tissues. The tissues were mulched into a reasonably smooth pulp using sterile disposable followed by incubating at 37° C. for 12 min. They were then triturated using 5 ml plastic pipettes to homogenize the mixture. The incubation and triturating step was repeated once more. […]

[2] = system: Cyclin D1; experiment: Cyclin D1 mRNA expression in isolated SCs; format: cell-based
Protocol: (§2) RNA and qRT-PCR. For analysis of gene expression, cells were treated with vehicle (DMSO) or 10 nM Shh-Ag for 24 hours. Total RNA was isolated with RNEasy Miniprep Kit (Qiagen), DNAse treated (RQ1, Promega) and reverse transcribed (iScript, Biorad) according to manufacturers instructions. Quantitative PCR was performed using Taqman Gene Expression Assays (Applied Biosystems) in an ABI7500 Fast system as per manufacturer's instructions. Gene expression changes were calculated using the comparative ΔΔCT method.
(§3) Myoblast and Satellite cell isolation. Primary mouse myoblasts were isolated from mouse hind-limb muscles as described herein. Muscle satellite cells were isolated from hind-limb muscles of 4-6 week old C57BL/6J mice. Muscles were dissected and finely chopped with razor blades in DMEM. Chopped muscles were placed in a 50 mL Falcon tube with 30 mL of dissociation solution (0.1% Collagenase D, 0.25% Trypsin in DMEM) and agitated at 37° for 20 minutes. Following dissociation, 500 μl of fetal calf serum was added to block Trypsin activity and samples were passed through a 37 μM filter. Solutions were diluted two-fold in DMEM, passed through a […] filter, centrifuged at 1000 RPM for 15 minutes, and the subsequent pellet was re-suspended in 1% FCS/PBS. Syndecan 4 positive satellite cells were then isolated by fluorescent activated cell sorting (FACS) utilizing an ARIA-UV cell sorter (BD).

[3] = system: isolated satellite cells; experiment: Isolated satellite cell proliferation, total cell number and BrdU incorporation; format: cell-based, mouse; conditions: 48 hr treatment, versus vehicle
Protocol: as §1
as §3, with “Syndecan 4 positive satellite cells were then isolated by fluorescent activated cell sorting (FACS) utilizing an ARIA-UV cell sorter (BD).” left out
(§4) BrdU treatment. […] Three random images from four replicate experiments were analyzed for total cell (Dapi) and BrdU+ cell number. […]

[4] = system: DMD^MDX mice; experiment: Intramuscular injection into DMD MDX mouse skeletal muscle, BrdU/Pax7 staining; format: in vivo; conditions: 500 μM IM once per day for two days
Protocol: (§5) FIG. 3 is a graphic depiction of the design of in vivo experiments, further detailed herein. 6 to 8-week old wildtype (WT), DMD^MDX, or WT cardiotoxin-injured mice (Ctx-inj) received two consecutive bilateral IM injections of either vehicle (10% DMSO/PBS), or Shh-Ag (500 μM) into tibialis anterior (TA) or gastrocnemius (GA) muscles, followed by an IP injection of BrdU. Mice were sacrificed and muscles were then collected 3 or 7 days following ctx-injury for immunostaining (TA) or FACS analysis (GA); n=4 for all groups.
(§6) Mice. All mouse protocols were approved by the Animal Care and Use Committee of Novartis Institutes for BioMedical Research. Wild-type (C57BL/6J) and C57BL/10 DMD^MDX mice were obtained from Jackson Labs. All analyses were performed on male mice approximately 6-8 weeks of age.
(§7) Shh-Ag treatment. 20 μl (TA) or 50 μl (GA) of vehicle (10% DMSO/PBS) or 500 μM Shh-Ag was injected into the respective tibialis anterior or gastrocnemius muscles once per day for two consecutive days.
as §4
(§8) Immunostaining. […] Images were obtained using an ScanScope XT scanner and analyzed using Aperio ImageScope 6.25 software (Aperio Technologies). […]

[5] = system: Gli1; experiment: Gli1 protein levels, Western blot densitometry; format: cell-based; conditions: rSHH 1 μg/mL; densitometric scores relative to vehicle=100
Protocol: (§9) Protein expression. For details of protein extraction and analysis, please see Supplementary Methods online. Antibodies used for Western are rabbit polyclonal antibodies against Gli1, total Akt, phosphorylated Akt-Ser473 (Cell Signaling) and Cyclin D1 (Abeam).
(§10) Protein Expression. Cells were collected in lysis buffer (20 mM Tris, pH 7.5, 150 mM NaCl, 1 mM EDTA, 1 mM EGTA, 1% Nonidet NP-40, 1 mM β-glycerol phosphate, 1 mM Na3VO4, 1 μg/ml leupeptin, and 1 mM PMSF) and measured for protein concentration with a BCA protein assay kit (Pierce). Electrophoretic separation was performed utilizing 20-60 μg of protein on 4-12% mini-gels (Invitrogen). Proteins were transferred to a PVDF membrane, blocked in 5% blotto [5% powdered milk in TBST (Tris-buffered saline, 1% Tween 20)] for 1 hr followed by an overnight incubation at 4° C. with primary antibody. After overnight incubation, membranes were washed for 30 min in TBST and then probed with anti-rabbit antibody for 45 min at room temperature. After another 30 min of washing in TBST, the blots were developed with ECL. Once the appropriate image was captured, membranes were stained with Coomassie blue to verify equal loading in all lanes. Densitometric measurements were carried out using AlphaEase software (Alpha Innotech).

[6] = system: WT cardiotoxin-injured mice; experiment: Cardiotoxin-induced muscle injury and regeneration in WT mice, staining and FACS analysis; format: in vivo, mouse
Protocol: as §5, §6
Cardiotoxin-induced regeneration. Muscle regeneration was induced by injecting 40 μl (TA) or 100 μl (GA) of cardiotoxin (10 μM Naja atra; Sigma) into the respective tibialis anterior or gastrocnemius muscles of WT C57BL/6J mice.
as §7
BrdU treatment. For treatment of isolated SCs, a 1:100 dilution of 5-bromodeoxyuridine (BrdU) labeling reagent (10 mg/mL; Invitrogen) was added to the culture media 24 hours following vehicle or Shh-Ag treatment. Cells were then incubated an additional 5 hours, fixed, probed for BrdU, mounted with Dapi containing medium (Vector Labs), and then imaged as described in Materials in Methods. Three random images from four replicate experiments were analyzed for total cell (Dapi) and BrdU+ cell number. For in vivo delivery, 100 μl of BrdU was intraperitoneally (IP) injected following the second vehicle or Shh-Ag intramuscular injection.
FACS analysis. The following antibodies were used in this study: APC-conjugated anti-CD45 (BD), PE-conjugated anti-Syndecan 4 (BD), and FITC-conjugated anti-BrdU (BioVision). Muscles from treated mice were dissected and dissociated as described. To sort satellite cells for further experimentation, […] anti-syndecan 4 was utilized to positively select cells following ARIA (BD) mediated cell sorting. […]
as §8
To quantify the induction of SC proliferation, ctx-injured and Shh-Ag treated muscle samples (GA) were collected and processed for FACS analysis. A single-cell muscle suspension was gated based on CD45− and Syndecan4+ expression, commonly used identifiers of muscle SCs, and the resultant population was then analyzed for intracellular BrdU localization (see, e.g., FIG. 4). […]

[7] = system: Cyclin D1; experiment: Cyclin D1 mRNA expression in myoblasts; format: cell-based
Protocol: as §2

[8] = system: wild-type (WT) mice; experiment: Intramuscular injection into wild-type mouse skeletal muscle, BrdU/Pax7 staining; format: in vivo; conditions: 500 μM IM once per day for two days
Protocol: as §5, §6, §7, §4, §8

[9] = system: Cyclin D1; experiment: Cyclin D1 protein levels, Western blot densitometry; format: cell-based; conditions: rSHH 1 μg/mL; densitometric scores relative to vehicle=100
Protocol: as §9, §10

[10] = system: Gli1; experiment: Gli1 mRNA levels in myotubes; format: cell-based; conditions: 10 μM, 24 hours

Compound | myoblast proliferation on co-treatment of Shh-Ag with IGF-1 [1] | increase in Cyclin D1 mRNA expression [2] | increase in the percentage of SCs incorporating BrdU [3] | mononuclear cell infiltration (BrdU+ staining) [4] | number of Pax7−/BrdU+ cells [4] | Gli1 protein levels [5] | BrdU+, centrally-aligned nuclei in longitudinal muscle sections ([6]; 7 days following ctx-injury) | percent of proliferating (BrdU+) SCs ([6]; ctx-injured GA muscle, FACS, vehicle 4.82±0.33) | percentage of Pax7 expressing SCs that are Pax7+/BrdU+ double positive ([6]; ctx-injured WT muscle, compared to vehicle control) | number of BrdU+ cells at an early stage of regeneration ([6]; single cardiotoxin injury, WT mice, 500 μM IM) | increase in Cyclin D1 mRNA expression [7] | Pax7/BrdU fluorescent co-staining of muscle sections [8] | BrdU staining of muscle sections ([8]; vehicle sections negative) | Cyclin D1 protein levels [9] | Gli1 mRNA levels, fold increase [10]
IGF-1: Insulin-like growth factor I, a known skeletal muscle mitogen signaling through PI3K/Akt | did not significantly increase | – | – | – | – | – | – | – | – | – | – | – | – | – | –
CNC1CCC(N(Cc2cccc(-c3ccncc3)c2)C(=O)c2sc3c(F)ccc(F)c3c2Cl)CC1 (stereo not drawn) [Shh-Ag] | – | more than 50% | two fold increase | seemed to promote even greater mononuclear cell infiltration | greatly increased | induction; also recorded: increase | increase in BrdU+, centrally-aligned nuclei | 10.67±1.87% and 10.6% | larger percentage | significantly increase | more than 50% | Pax7+/BrdU+ double positive cells were easily seen | displayed BrdU+ precursor cells | elevated protein expression; also recorded: increase | over 20 fold
